ChEMBL document CHEMBL1201862, “PubChem BioAssay data set” (2004)
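Dose response: 5 concentrations. Exposure: 48 h. Format: 96-well plates. Endpoint: linear interpolation; highest concentration if not reached. Here, GI50 denotes the concentration required for 50% inhibition of growth.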 Active and inactive are the calls of the source. Cut-off read from the data, not from the text of the source: active = GI50 up to about 1.1 µM and inactive = higher.

Tests used:
Test in all cases: inhibition of tumour cell growth, NCI panel, 48 h
[1] = tested on: A498
[2] = tested on: COLO 205
[3] = tested on: EKVX
[4] = tested on: HCC 2998
[5] = tested on: IGROV-1
[6] = tested on: K562
[7] = tested on: KM12
[8] = tested on: LOX IMVI
[9] = tested on: MOLT-4
[10] = tested on: NCI-H226
[11] = tested on: NCI-H23
[12] = tested on: SF-539
[13] = tested on: SN12C
[14] = tested on: SNB-75
[15] = tested on: UO-31
[16] = tested on: HCT-116
[17] = tested on: RXF 393

SMILES | GI50 [1] | GI50 [2] | GI50 [3] | GI50 [4] | GI50 [5] | GI50 [6] | GI50 [7] | GI50 [8] | GI50 [9] | GI50 [10] | GI50 [11] | GI50 [12] | GI50 [13] | GI50 [14] | GI50 [15] | GI50 [16] | GI50 [17]
O=C(CN1CCOCC1)Nc1nc(-c2ccc(Cl)cc2)cs1 | 23.1 µM (inactive) | 31.9 µM (inactive) | 75.2 µM (inactive) | 26.8 µM (inactive) | 45.2 µM (inactive) | 19.4 µM (inactive) | 19.5 µM (inactive) | 22.2 µM (inactive) | 13.8 µM (inactive) | 24 µM (inactive) | 15.1 µM (inactive) | 44.4 µM (inactive) | 34.3 µM (inactive) | 19 µM (inactive) | 20.3 µM (inactive) |  | 
CSCCOC(=O)C(=[N+]=[N-])c1ccc([N+](=O)[O-])cc1 |  | > 100 µM (inactive) | > 100 µM (inactive) | > 100 µM (inactive) | > 100 µM (inactive) | > 100 µM (inactive) | > 100 µM (inactive) | > 100 µM (inactive) | > 100 µM (inactive) | > 100 µM (inactive) | > 100 µM (inactive) | > 100 µM (inactive) | > 100 µM (inactive) | > 100 µM (inactive) | > 100 µM (inactive) | > 100 µM (inactive) | > 100 µM (inactive)
O=C(O)C12C3C4C1C1C2C3C1(Br)C41OCCO1 (stereo unspecified) | > 100 µM (inactive) | > 100 µM (inactive) | > 100 µM (inactive) | > 100 µM (inactive) | > 100 µM (inactive) | > 100 µM (inactive) | > 100 µM (inactive) | > 100 µM (inactive) | > 100 µM (inactive) |  | > 100 µM (inactive) | > 100 µM (inactive) |  | > 100 µM (inactive) | > 100 µM (inactive) | > 100 µM (inactive) | > 100 µM (inactive)
Nc1ccc(C(=O)NN2C(=O)C(Cl)C2c2cc(Br)ccc2O)cc1 (stereo unspecified) | > 100 µM (inactive) | > 100 µM (inactive) | > 100 µM (inactive) | > 100 µM (inactive) | 36.5 µM (inactive) | 70.1 µM (inactive) | > 100 µM (inactive) | 41.2 µM (inactive) |  | > 100 µM (inactive) | > 100 µM (inactive) | > 100 µM (inactive) | > 100 µM (inactive) | > 100 µM (inactive) | > 100 µM (inactive) | 15.9 µM (inactive) | 
CC(C)C(Nc1c2ccccc2[n+](C)c2ccccc12)C(=O)O (stereo unspecified) | > 100 µM (inactive) | > 100 µM (inactive) | > 100 µM (inactive) | > 100 µM (inactive) | > 100 µM (inactive) | > 100 µM (inactive) | > 100 µM (inactive) |  | > 100 µM (inactive) | > 100 µM (inactive) | > 100 µM (inactive) | > 100 µM (inactive) | > 100 µM (inactive) | > 100 µM (inactive) | > 100 µM (inactive) | > 100 µM (inactive) | > 100 µM (inactive)
CCCCC(N)CSSCC(N)CCCC (stereo unspecified) | 25.8 µM (inactive) | 52.7 µM (inactive) | 25.2 µM (inactive) | 19 µM (inactive) | 50.8 µM (inactive) | 19.4 µM (inactive) | 49.2 µM (inactive) | 17.6 µM (inactive) | 19.2 µM (inactive) | 23.5 µM (inactive) | 24.8 µM (inactive) | 23.7 µM (inactive) | 19.5 µM (inactive) | 30.6 µM (inactive) | 21.4 µM (inactive) | 17.8 µM (inactive) | 
CCCc1nc(N)nc(C(=O)Nc2cccc(C(F)(F)F)c2)c1CC | > 100 µM (inactive) |  | > 100 µM (inactive) | > 100 µM (inactive) | > 100 µM (inactive) | > 100 µM (inactive) | > 100 µM (inactive) | > 100 µM (inactive) | > 100 µM (inactive) | > 100 µM (inactive) | > 100 µM (inactive) | > 100 µM (inactive) | > 100 µM (inactive) | > 100 µM (inactive) | > 100 µM (inactive) | > 100 µM (inactive) | > 100 µM (inactive)
CCOC(C[C@H](O[Si](C)(C)C(C)(C)C)[C@H]1COC(=S)S1)OCC |  | 66.1 µM (inactive) | > 100 µM (inactive) | > 100 µM (inactive) |  | 41.3 µM (inactive) | 50.7 µM (inactive) | 52.6 µM (inactive) | 34.7 µM (inactive) | 85.1 µM (inactive) | 53.5 µM (inactive) | 33.6 µM (inactive) | 55.8 µM (inactive) |  | 35 µM (inactive) | 39.2 µM (inactive) | 
CC(CCC(=O)O)c1ccc(Br)cc1 (stereo unspecified) |  | > 100 µM (inactive) | > 100 µM (inactive) | > 100 µM (inactive) | > 100 µM (inactive) | > 100 µM (inactive) | > 100 µM (inactive) | > 100 µM (inactive) | > 100 µM (inactive) | > 100 µM (inactive) | > 100 µM (inactive) |  | > 100 µM (inactive) | > 100 µM (inactive) | > 100 µM (inactive) | > 100 µM (inactive) | > 100 µM (inactive)
CCN(CC)c1oc(N(CC)CC)c(C(=O)Nc2ccccn2)c(=O)c1C(C)=O | > 100 µM (inactive) | > 100 µM (inactive) | > 100 µM (inactive) |  | > 100 µM (inactive) | > 100 µM (inactive) | > 100 µM (inactive) |  | > 100 µM (inactive) | > 100 µM (inactive) | > 100 µM (inactive) | > 100 µM (inactive) | > 100 µM (inactive) | > 100 µM (inactive) | > 100 µM (inactive) | > 100 µM (inactive) | 
NC(=S)N1N=C2c3ccccc3CC[C@H]2[C@@H]1c1cccs1 | 60.3 µM (inactive) | 16.5 µM (inactive) | 38.4 µM (inactive) | 37.4 µM (inactive) | 37.2 µM (inactive) | 7.69 µM (inactive) | 26.6 µM (inactive) | 66.5 µM (inactive) | 21.5 µM (inactive) | 29 µM (inactive) | 24.6 µM (inactive) | 43.2 µM (inactive) | 39.3 µM (inactive) |  | 27.5 µM (inactive) | 28.8 µM (inactive) | 16.8 µM (inactive)
COc1ccc2nc(NC(=O)C(=O)C(C#N)c3ccc([N+](=O)[O-])cc3)sc2c1 (stereo unspecified) |  | > 100 µM (inactive) | 31.9 µM (inactive) | > 100 µM (inactive) | > 100 µM (inactive) | 72.1 µM (inactive) | > 100 µM (inactive) | > 100 µM (inactive) | 38.3 µM (inactive) | > 100 µM (inactive) | > 100 µM (inactive) | > 100 µM (inactive) | > 100 µM (inactive) | > 100 µM (inactive) | 11.2 µM (inactive) | > 100 µM (inactive) | > 100 µM (inactive)
CCCCCCCCCCCOc1ccc(C(=O)C(=O)c2ccc(OCCCCCCCCCCC)c(OCCCCCCCCCCC)c2)cc1OCCCCCCCCCCC | > 100 µM (inactive) | > 100 µM (inactive) | > 100 µM (inactive) | > 100 µM (inactive) | > 100 µM (inactive) | > 100 µM (inactive) | > 100 µM (inactive) | > 100 µM (inactive) | 80.7 µM (inactive) | > 100 µM (inactive) | > 100 µM (inactive) | > 100 µM (inactive) | > 100 µM (inactive) | 31.3 µM (inactive) | > 100 µM (inactive) | > 100 µM (inactive) | 
CC(=O)c1ccccc1NC(=O)C(=O)C(C(=O)c1ccc2ccccc2c1)C1OC(=O)c2ccccc21 (stereo unspecified) | 15.2 µM (inactive) | 14.9 µM (inactive) | 97.9 µM (inactive) | 4.72 µM (inactive) | 16.1 µM (inactive) | 9.04 µM (inactive) | 18.3 µM (inactive) | 7.71 µM (inactive) | 3.67 µM (inactive) | 2.26 µM (inactive) | 6.49 µM (inactive) | 4.72 µM (inactive) | 13.7 µM (inactive) | 8.95 µM (inactive) | 13.3 µM (inactive) | 13.1 µM (inactive) | 
CCc1nc(N)nc(C(=O)NCCNC(=O)c2nc(N)nc(CC)c2C)c1C | > 100 µM (inactive) |  | > 100 µM (inactive) | > 100 µM (inactive) | > 100 µM (inactive) | > 100 µM (inactive) | > 100 µM (inactive) | > 100 µM (inactive) | > 100 µM (inactive) | > 100 µM (inactive) | > 100 µM (inactive) | > 100 µM (inactive) | > 100 µM (inactive) | > 100 µM (inactive) | > 100 µM (inactive) | > 100 µM (inactive) | > 100 µM (inactive)
COc1cc(OC)c(/C=C2\N=C(C)N(Nc3nnc(NN4C(=O)/C(=C/c5c(OC)cc(OC)cc5OC)N=C4C)c4ccccc34)C2=O)c(OC)c1 | > 100 µM (inactive) | > 100 µM (inactive) | 94.4 µM (inactive) |  | > 100 µM (inactive) | > 100 µM (inactive) | > 100 µM (inactive) | > 100 µM (inactive) | > 100 µM (inactive) | > 100 µM (inactive) | > 100 µM (inactive) | > 100 µM (inactive) | > 100 µM (inactive) | 42.3 µM (inactive) |  | > 100 µM (inactive) | > 100 µM (inactive)
Cc1c2cc[n+](C)cc2c(C)c2c1[nH]c1ccc(Oc3ccccc3)cc12 |  | 0.845 µM (active) | 3.08 µM (inactive) | 3.18 µM (inactive) | 2.37 µM (inactive) | 0.665 µM (active) | 0.736 µM (active) | 1.61 µM (inactive) | 1.69 µM (inactive) | 0.544 µM (active) | 0.53 µM (active) | 1.26 µM (inactive) | 0.303 µM (active) | 0.441 µM (active) | 5.08 µM (inactive) | 1.29 µM (inactive) | 
